Tested on: Rhizoctonia solani
Experiment: Soybean seed treatment test in soil contaminated by Rhizoctonia solani (disease control efficacy)
Assay type: in vivo, Rhizoctonia solani on soybean (variety: Natto shoryu)
Details: seed treatment with carboxamide compound alone 0.2 g/100 kg of seeds; soybean cultivated 20 days in contaminated soil; versus non-treated plot
Procedure: A cyclohexanone solution (100 microL) containing prescribed amount (weight) of a test compound was applied on seeds of soybean (variety: Natto shoryu) (10 g) by using a rotary apparatus for seed treatment (Seed dresser, manufactured by Hans-Ulrich Hege GmbH).
One day after the treatment, plastic pot was filled with soil contaminated by Rhizoctonia solani, and the seeds treated with the test compounds were seeded in the soil and cultivated in a glass-greenhouse for 20 days (hereinafter referred to as “treated plot”).
Thereafter, the presence of disease caused by Rhizoctonia solani in the young plants which germinated from each seed was observed and disease severity was calculated according to the following calculation formula (1).
On the other hand, seeds of soybean which were not treated as above were cultivated in the same way as above (hereinafter referred to as “non-treated plot”) and the disease severity in “non-treated plot” was calculated in the same way as above “treated plot”. On the basis of the above disease severity in “treated plot” and “non-treated plot”, efficacy in “treated plot” was evaluated according to the following calculation formula (2). […]

CC1CC(C)(C)c2cccc(NC(=O)c3cn(C)nc3C(F)F)c21 (stereo not shown) [carboxamide compound (I)]
efficacy (%): 42.1%

— patent US9232797B2, “Pesticidal composition and its use” (SUMITOMO CHEMICAL COMPANY, LIMITED, priority 2010, dated 2016)
